Reference: ChEMBL document CHEMBL3714747, “Imidazothiadiazole and imidazopyrazine derivatives as protease activated receptor 4 (par4) inhibitors for treating platelet aggregation” (2015)

Legend:
Cynomolgus monkey [1] = test: Antithrombotic activity in cynomolgus monkey electrolytic injury-induced carotid artery thrombosis model assessed as reduction in thrmbosis-induced occlusion at 0.02 mg/kg, po dosed 1 to 2 hrs before test; type: functional; settings: Macaca fascicularis
Cynomolgus monkey [2] = test: Antithrombotic activity in cynomolgus monkey electrolytic injury-induced carotid artery thrombosis model assessed as reduction in thrmbosis-induced occlusion at 0.1 mg/kg, po dosed 1 to 2 hrs before test; type: functional; settings: Macaca fascicularis
Cynomolgus monkey [3] = test: (§1) Antithrombotic activity in cynomolgus monkey electrolytic injury-induced carotid artery thrombosis model assessed as reduction in thrmbosis-induced occlusion at […], po dosed 1 to 2 hrs before test; type: functional; settings: Macaca fascicularis
Cynomolgus monkey [4] = test: Antithrombotic activity in cynomolgus monkey electrolytic injury-induced carotid artery thrombosis model assessed as reduction in thrmbosis-induced occlusion at 0.5 mg/kg, po dosed 1 to 2 hrs before test; type: functional; settings: Macaca fascicularis
Cynomolgus monkey [5] = test: as §1; type: functional; settings: Macaca fascicularis; remark: listed apart in the source
[6] = target: T1, Proteinase-activated receptor 4 (Homo sapiens, UniProt Q96RI0); test: Antagonist activity against human PAR4 expressed in HEK293 cells assessed as reduction in H-Ala-Phe(4-F)-Pro-Gly-Trp-Leu-Val-Lys-Asn-Gly-NH2-induced intracellular calcium mobilization incubated for 30 mins by FLIPR assay; type: functional, cell-based
T1 sequence (Q96RI0 whole entry): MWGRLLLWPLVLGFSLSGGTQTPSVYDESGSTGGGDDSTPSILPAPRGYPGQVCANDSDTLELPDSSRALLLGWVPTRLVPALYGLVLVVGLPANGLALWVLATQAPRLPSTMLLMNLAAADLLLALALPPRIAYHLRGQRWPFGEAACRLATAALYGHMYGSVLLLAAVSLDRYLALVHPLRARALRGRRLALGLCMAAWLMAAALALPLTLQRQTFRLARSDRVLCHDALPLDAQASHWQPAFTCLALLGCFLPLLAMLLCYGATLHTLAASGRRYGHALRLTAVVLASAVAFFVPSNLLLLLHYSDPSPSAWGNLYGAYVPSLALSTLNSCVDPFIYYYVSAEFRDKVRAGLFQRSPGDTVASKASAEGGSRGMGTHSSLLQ

Row | EC50 [6] [pM] | Compound | inhibition in vivo at 0.02 mg/kg (Cynomolgus monkey [1]) [%] | inhibition in vivo at 0.1 mg/kg (Cynomolgus monkey [2]) [%] | inhibition in vivo at […] (Cynomolgus monkey [3]) [%] | inhibition in vivo at 0.5 mg/kg (Cynomolgus monkey [4]) [%] | inhibition in vivo at […] (Cynomolgus monkey [5]) [%]
1 |  | COc1cc(OCc2csc(-c3ccccc3)n2)c2cc(-c3cn4nc(OC)sc4n3)oc2c1 | 19 | 24 | 46 | 47 | 51
2 | 420 | COc1cc(OCc2csc(N3CCN(c4cnccn4)CC3)n2)c2cc(-c3cn4nc(C)ccc4n3)oc2c1 |  |  |  |  | 
